Measured values as given in US9700637B2, “Reaction-based fluorescent probes for detecting zinc” (Massachusetts Institute of Technology, priority 2013, dated 2017).
Values joined by “and” are separate entries in the source; they are usually repeats but may differ in a detail not shown here. Equal values may be shown once.

Tests used:
[1] = tested on: HeLa cells; assay: Live cell fluorescence imaging: response to intracellular zinc (ZnPT/TPEN) and stability in cellulo; format: cell-based
Method: FIG. 5 depicts live cell imaging of HeLa cells that were bathed in a 1 μM solution of DA-ZP1-TPP in dye and serum free DMEM media for 30 min at 37° C. and 5% CO2. […] There was minimal fluorescent signal from DA-ZP1-TPP, consistent with the quenched fluorescent form of the sensor (top, right).
FIG. 24 depicts fluorescence images of live HeLa cells. HeLa cells were pretreated with a 1 μM solution of DA-ZP1-TPP in dye- and serum-free medium for 30 min (37° C., 5% CO2). […] The signal from MitoTracker Red (c) correlates well with the signal from the zinc-bound sensor (d). Pearson's r=0.64±0.1 (n=18). […]
We used HeLa cells as a model system to evaluate the ability of DA-ZP1-TPP to target mitochondria and respond to changes in intracellular zinc levels. Live HeLa cells were pretreated with medium containing 1 μM DA-ZP1-TPP and 250 nM MitoTracker Red for 30 min (37° C., 5% CO2) prior to imaging (FIG. 24). […] Over a two-hour period, the fluorescence intensity from the sensor remained constant, implying that the acetylated form is stable against intracellular esterases (FIG. 24e). […] Addition of 100 μM TPEN attenuated the fluorescence signal by ˜2.4-fold (FIG. 24f). […] We anticipate that this strategy will be applicable to related families of fluorophores. […]

[2] = Zinc-induced fluorescence response in cuvette (turn-on, quantum yield); format: physicochemical; conditions: for zinc-induced fluorescence response (turn-on): excess ZnCl2
Method: FIG. 2 depicts the normalized fluorescent spectra of DA-ZP1-TPP (also referred to as Ac2-ZP1-TPP) and ZP1-TPP in the absence (dashed line) and presence (solid line) of excess ZnCl2. Inset: The y-axis is magnified to aid in the visualization of the ˜7-fold “turn-on” of ZP1-TPP.
FIG. 20 depicts Zn(II)-dependent fluorescence signal enhancement of DA-ZP1-TPP. (a) Normalized fluorescence spectra of a 1 μM solution of DA-ZP1-TPP, in 50 mM PIPES buffer (pH 7) with 1 mM EDTA, 2 mM CaCl2, and 100 mM KCl, upon increasing concentrations of free zinc ions. (b) Zinc binding isotherm for the data in (a), normalized to the fluorescence signal under zinc saturating conditions (λex=495 nm).
Spectra were acquired in 50 mM PIPES (pH 7) with 100 mM KCl. For this titration, a single excitation wavelength of λex=485 nm was used.
The diacetylated version of ZP1-TPP, designated DA-ZP1-TPP, was readily prepared by reacting ZP1-TPP with acetic anhydride overnight at room temperature. Over the course of the reaction, the mixture turned from a dark, salmon-colored solution to a light, nearly colorless liquid, which was purified by HPLC. […] Addition of nanomolar concentrations of zinc ions results in a large increase in both the absorption λabs-Zn=510 nm) and fluorescence (λem-Zn=529 nm, FIG. 20a) spectral bands of DA-ZP1-TPP. These optical changes combine to yield a >140-fold increase in the fluorescence signal (ΦZn=0.75±0.03, FIG. 20). […] Whether the mode of zinc-mediated ester hydrolysis proceeds by internal or external hydroxide attack remains to be determined. […] Addition of a chelator (EDTA) attenuates the fluorescence signal ˜5-fold (Φ=0.15±0.02) in the cuvette (FIG. 22) with a concomitant redshift in the absorption spectrum (λabs=522 nm). Reversibility of the fluorescence signal is an important feature for zinc-responsive probes, because it allows confirmation that the observed increase in fluorescence signal is due to Zn(II) and not the result of an artifact. […]
Using DA-ZP1-A3 as a model system, we assessed its photophysical and zinc-binding properties (FIG. 26). […]

Row | period over which signal intensity was stable in cellulo ([1]; live HeLa, 1 μM, no added zinc) | SMILES | increase in fluorescence intensity on ZnPT ([1]; live HeLa, 1 μM probe, 50 μM ZnPT) | attenuation of fluorescence signal by TPEN ([1]; live HeLa, 100 μM TPEN after 50 μM ZnPT) | attenuation of fluorescence signal by EDTA ([2]; chelator (EDTA) added after zinc) | zinc-induced fluorescence response (turn-on) [2] | response to changing intracellular zinc levels ([1]; live HeLa cells)
1 | 2 h | CC(=O)Oc1c(Cl)cc2c(c1CN(Cc1ccccn1)Cc1ccccn1)Oc1c(cc(Cl)c(OC(C)=O)c1CN(Cc1ccccn1)Cc1ccccn1)C21OC(=O)c2ccc(C(=O)NCC[P+](c3ccccc3)(c3ccccc3)c3ccccc3)cc21 [DA-ZP1-TPP] | ~12.1 fold and ~12 fold | ~2.4 fold | ~5 fold | > 140 fold | 
2 |  | O=C(NCC[P+](c1ccccc1)(c1ccccc1)c1ccccc1)c1ccc2c(c1)C1(OC2=O)c2cc(Cl)c(O)c(CN(Cc3ccccn3)Cc3ccccn3)c2Oc2c1cc(Cl)c(O)c2CN(Cc1ccccn1)Cc1ccccn1 [ZP1-TPP] |  |  |  | ~7 fold | did not respond significantly to changing intracellular zinc levels
